Test results from PubChem BioAssay (NCI).
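These data come from cells grown in 96-well plates and exposed to compound for 48 hours at five concentrations. GI50: concentration for 50% inhibition of growth. The concentration for full growth arrest is given as TGI.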

What follows are compounds tested on EKVX NSCLC (assay: inhibition of tumour cell growth, NCI panel, 48 h).
With `Nc1nc(Nc2ccc(OCc3cccc(F)c3)cc2)c2c(n1)[nH]c1ccc(O)cc12` the GI50 was 8.86 µM and the TGI was 29.4 µM.
With `CCC1(CC)C(=O)NC(=S)N=C1N` the TGI was > 100 µM.
`CC1=NC(C)(C)N(O)C1(C)C` was tested, and the TGI was > 100 µM.
`O=c1oc2ccccc2c2nc3ccccc3cc12` was tested, and the TGI was > 100 µM.
`CCCC[C@@H]1CCN2C[C@@H](O)[C@@H](O)[C@H]2[C@@H]1O` was tested, and the TGI was > 100 µM.
For `O=C(NN1C(=O)CSC1c1ccc(Cl)c(Cl)c1)c1ccncc1` (configuration not stated), the TGI was > 100 µM.
`Clc1cccc(C2ON=C(c3ccccc3)N2C23CC4CC(CC(C4)C2)C3)c1Cl` (configuration not stated) was tested, and the TGI was > 10 µM.
In the case of `CNc1ccc2c(c1)Cc1ccccc1-2`, the TGI is reported as > 100 µM.
`CCN(CC(=O)O)CC(=O)O` was tested, and the TGI was > 100 µM.
For `Cc1cc(C)nc(NS(=O)(=O)c2ccc(Nc3c4ccccc4nc4c(C(=O)NCCO)cccc34)cc2)n1`, the TGI was > 100 µM.
`COC1OC2COC(C)(C)OC2C2OC(C)(C)OC12` (configuration not stated) was tested, and the TGI was > 100 µM.
In the case of `CCNC(=S)N/N=C/c1ccccn1`, the TGI is reported as > 100 µM.
`COc1ccc(CCCCl)c(C2=NCCc3ccccc32)c1` was tested, and the TGI was > 100 µM.
`C=C1CC=CC(C)(C)C1C/C=C(\C)C(O)CBr` (configuration not stated) was tested, and the TGI was > 100 µM.
`O=C(NCCCNCCCCNCCCNC(=O)C(F)(F)F)C(F)(F)F` was tested, and the TGI was > 100 µM.
In the case of `CCOC(=O)C(C)NC(=O)N(C)C12CC3CC(CC(C3)C1)C2` (configuration not stated), the TGI is reported as > 500 µM.
For `O=C(O)c1cc2ccccc2c(S(=O)(=O)O)c1O`, the TGI was > 100 µM.
With `CCc1cc(=O)n(/C(C)=C/c2ccccc2)n1C` the TGI was > 100 µM.
Compound `FC(F)=C(c1ccc(-c2ccc(Cl)cc2)cc1)C(F)(F)F` has a TGI of 41.5 µM.

Each compound was assayed on SR leukemia (assay: inhibition of tumour cell growth, NCI panel, 48 h).
`COc1cc2c(cc1OCCCOc1cc3c(cc1OC)C(=O)N1CCC[C@H]1CN3)N=C[C@@H]1CCCN1C2=O` gave a TGI of 0.0265 µM.
In the case of `CCOC(=O)C1=C(C)NC(=O)N([N+](=O)[O-])C1c1ccccc1C(F)(F)F` (configuration not stated), the TGI is reported as > 100 µM.
In the case of `COP(=O)(CC(=O)C1OC(OCc2ccccc2)C(OCc2ccccc2)C(OCc2ccccc2)C1OCc1ccccc1)OC` (configuration not stated), the TGI is reported as 21.4 µM.
For `OC(c1ccco1)C(F)(F)c1nc2ccccc2o1` (configuration not stated), the TGI was > 100 µM.
`CN1c2ccccc2C(=O)NC12CCN(CC1COc3ccccc3O1)CC2` (configuration not stated) was tested, and the TGI was > 100 µM.
For `Cc1cn(C2CC(OC(c3ccccc3)(c3ccccc3)c3ccccc3)C(COC(c3ccccc3)(c3ccccc3)c3ccccc3)O2)c(=O)[nH]c1=O` (configuration not stated), the TGI was > 100 µM.
With `CCOC(=O)C(NC(=O)c1ccc(N=NN(C)C)cc1)C(C)C` (configuration not stated) the TGI was > 100 µM.
In the case of `COc1ccc(CN2C(=O)C(=O)N(C)C2=O)c2ccccc12`, the TGI is reported as > 10 µM.
With `C(=N/Nc1ccc(-c2nc3ccccc3[nH]2)cc1)/c1c(-c2ccccc2)[nH]c2ccccc12` the TGI was 17.1 µM.
`Cc1ccc(-n2cc(-c3ccc(Cl)cc3)c3c2N=CN2NC(c4ccco4)=NC32)cc1` (configuration not stated) showed a TGI of 11.6 µM.
`COc1cc(/C=C/c2cc(=O)cc(/C=C/c3ccc(O)c(OC)c3)o2)ccc1O` was tested, and the TGI was > 100 µM.
In the case of `c1ccc([P+](Cc2csnn2)(c2ccccc2)c2ccccc2)cc1`, the TGI is reported as > 100 µM.
In the case of `NNC(=O)c1cccc2c1Oc1ccccc1S2`, the TGI is reported as > 100 µM.
With `Cc1ccc(C(=O)c2[nH]c(Nc3cc(C)ccn3)c(C(=S)Nc3ccccc3)c2N)cc1` the TGI was > 100 µM.
In the case of `Nc1nc(Nc2ccc(OCc3cccc(F)c3)cc2)c2c(n1)[nH]c1ccc(O)cc12`, the GI50 is reported as 2.13 µM and the TGI is reported as 5.87 µM.
For `CC1=NC(C)(C)N(O)C1(C)C`, the TGI was > 100 µM.
For `O=c1oc2ccccc2c2nc3ccccc3cc12`, the TGI was > 100 µM.
In the case of `CNc1ccc2c(c1)Cc1ccccc1-2`, the TGI is reported as 91.2 µM.
Compound `Cc1cc(C)nc(NS(=O)(=O)c2ccc(Nc3c4ccccc4nc4c(C(=O)NCCO)cccc34)cc2)n1` has a TGI of 56.1 µM.
`CCOC(=O)c1csc(NC(=O)CCCC#N)n1` was tested, and the TGI was > 100 µM.
For `O=c1cc(-c2ccccc2F)[nH]c2cc3c(cc12)OCO3`, the TGI was > 100 µM.
With `CCNC(=S)N/N=C/c1ccccn1` the TGI was > 100 µM.
`COc1ccc(CCCCl)c(C2=NCCc3ccccc32)c1` was tested, and the TGI was > 100 µM.
`C=C1CC=CC(C)(C)C1C/C=C(\C)C(O)CBr` (configuration not stated) showed a TGI of 88.5 µM.
`FC(F)=C(c1ccc(-c2ccc(Cl)cc2)cc1)C(F)(F)F` was tested, and the TGI was 52.4 µM.

What follows are compounds tested on HCT-116 colon (assay: inhibition of tumour cell growth, NCI panel, 48 h).
`CCOP(=O)(OCC)c1cc(-c2ccccc2)ccc1N` was tested, and the TGI was > 100 µM.
With `CCOC(=O)C1=C(C)NC(=O)N([N+](=O)[O-])C1c1ccccc1C(F)(F)F` (configuration not stated) the TGI was > 100 µM.
In the case of `Brc1ccc2c(c1)-c1nc3c(cc1CC2)CCc1ccc(Br)cc1-3`, the TGI is reported as > 100 µM.
With `COP(=O)(CC(=O)C1OC(OCc2ccccc2)C(OCc2ccccc2)C(OCc2ccccc2)C1OCc1ccccc1)OC` (configuration not stated) the TGI was > 100 µM.
In the case of `OC(c1ccco1)C(F)(F)c1nc2ccccc2o1` (configuration not stated), the TGI is reported as > 100 µM.
With `CN1c2ccccc2C(=O)NC12CCN(CC1COc3ccccc3O1)CC2` (configuration not stated) the TGI was > 100 µM.
